In patent USRE40594E1, “Inhibitors of the bitter taste response” (Mount Sinai School of Medicine of New York University, priority 1998, dated 2008):
Structures can show the parent of a compound that is named as a salt. Where two headings read alike, the source gives them in different places.

System: bovine taste receptor cell membranes (taste receptors) with transducin
Experiment: G protein activation assay (trypsin sensitivity): activation of transducin by bitter tastant plus taste membranes
Type: biochemical, Bovine (Bos primigenius)
Settings: for inhibition of taste membrane-dependent activation of transducin by DEN (AMP analogues): DEN 5.0 mM, test compound 5.0 mM, FIG. 2; for inhibition of in vitro activation of transducin (G-protein) by taste membranes plus bitter compounds, summary statement: DEN, QUI and other bitter compounds, concentrations not given
Description: Taste receptor is contacted with gustducin or transducin and tastant, in the presence or absence of test inhibitor, under conditions suitable for activation of the G-protein present. […] In specific non-limiting embodiments, a subunits of transducin or gustducin may be combined with βγ subunits prior to this step, as set forth above. To the reaction mixture comprising taste receptors and gustducin or transducin, test inhibitor and/or bitter tastant may be added, and the resulting solution incubated to permit interaction of the elements.
In preferred embodiments, activation is assessed by a trypsin digestion assay. […] In a specific, non-limiting example, to perform a trypsin digestion assay according to the invention, TPCK-treated trypsin (1:25 trypsin to total protein in the reaction mixture) may be added, and the digestion may be performed at room temperature for about 15 minutes and stopped by adding soybean trypsin inhibitor (6:1 mol/mol inhibitor to trypsin). […] The separated polypeptides may then be transferred by electro-blotter to a poly (vinylidene difluoride) membrane blocked by the addition of 5% BLOTTO [50 mM Tris-HCI, pH 7.4/100 mM NaCl/5% nonfat dry milk], (30 min). G-protein peptides may then be visualized by binding of antibody directed toward transducin or gustducin, followed, for example, by binding of a detectably labeled secondary antibody. If a horseradish peroxidase-labeled secondary antibody is used, binding may be visualized by developing with bicinchoninic acid staining reagents and exposure to x-ray film.
G Protein Activation Assays. Bovine (Bos primigenius) tongues were collected fresh from a local slaughterhouse and transported on ice to the laboratory. Circumvallate papillae were hand dissected, frozen in liquid nitrogen, and stored at −80° C. until use. […] The pelleted membranes were rinsed twice, resuspended in homogenization buffer lacking protease inhibitors, and further homogenized by 20 passages through a 25-gauge needle. Aliquots were either flash frozen or stored on ice until use. […] The separated polypeptides were transferred by electro-blotter to a poly (vinylidene difluoride) membrane, which was blocked by the addition of 5% BLOTTO [50 mM Tris-HCI, pH 7.4/100 mM NaCl/5% nonfat dry milk], (30 min), then transducin peptides were visualized by binding of transducin antiserum and horseradish peroxidase-labeled goat anti-rabbit secondary antibody, followed by developing with bicinchoninic acid staining reagents from Bio-Rad and exposure to x-ray film.
Chemicals. All bitter tastant and buffer chemicals were of the highest purity available and were purchased either from Sigma or Boehringer Mannheim, unless otherwise noted. […] The rabbit polyclonal antitransducin antibody was a kind gift of Mel Simon and John Watson (California Institute of Technology, Pasadena, Calif.).

| Compound | inhibition of taste membrane-dependent activation of transducin by DEN (AMP analogues) | inhibition of in vitro activation of transducin (G-protein) by taste membranes plus bitter compounds, summary statement | activation of transducin by the tastant in the presence of taste membranes (tastant itself, no inhibitor) | further results |
| --- | --- | --- | --- | --- |
| Nc1ncnc2c1ncn2[C@@H]1O[C@H](CO)[C@@H](OP(=O)(O)O)[C@H]1O [3′AMP, adenosine 3′ monophosphate] | potently inhibited | successfully inhibit |  |  |
| Nc1ncnc2c1ncn2[C@@H]1O[C@H](C(=O)O)[C@@H](O)[C@H]1O [ACA, adenosine 5′-carboxylate] | not inhibited |  |  | inhibition of taste membrane-dependent activation of transducin by DEN (AMP analogues) (listed as adenosine 5′-carboxylate): did not block |
| Cl.Nc1ncnc2nc[nH]c12 [ADE, adenine hydrochloride] |  |  |  | inhibition of taste membrane-dependent activation of transducin by DEN (AMP analogues) (hydrochloride): not inhibited; inhibition of taste membrane-dependent activation of transducin by DEN (AMP analogues) (listed as adenine, hydrochloride): did not block |
| Cl.Nc1ncnc2c1ncn2[C@@H]1O[C@H](CO)[C@@H](O)[C@H]1O [ADO, adenosine hydrochloride] |  |  |  | inhibition of taste membrane-dependent activation of transducin by DEN (AMP analogues) (hydrochloride): not inhibited; inhibition of taste membrane-dependent activation of transducin by DEN (AMP analogues) (listed as adenosine, hydrochloride): did not block |
| Nc1ncnc2c1ncn2[C@@H]1O[C@H](COP(=O)(O)OP(=O)(O)O)[C@@H](O)[C@H]1O [ADP, adenosine 5′ diphosphate] | potently inhibited | successfully inhibit |  |  |
| Nc1ncnc2c1ncn2[C@@H]1O[C@H](COS(=O)(=O)O)[C@@H](O)[C@H]1O [AMS, adenosine 5′-monosulfate] | not inhibited |  |  | inhibition of taste membrane-dependent activation of transducin by DEN (AMP analogues) (listed as adenosine 5′-monosulfate): did not block |
| Nc1ncnc2c1ncn2[C@@H]1O[C@H](COC(=O)CCC(=O)O)[C@@H](O)[C@H]1O [ASU, adenosine 5′-succinate] | inhibited | successfully inhibit |  | inhibition of taste membrane-dependent activation of transducin by DEN (AMP analogues) (listed as adenosinc 5′-succinate): potently inhibited |
| Nc1ncnc2c1ncn2[C@@H]1O[C@H](COP(=O)(O)OP(=O)(O)OP(=O)(O)O)[C@@H](O)[C@H]1O [ATP, adenosine 5′ triphosphate] | potently inhibited | successfully inhibit |  |  |
| Cn1c(=O)c2c(ncn2C)n(C)c1=O [CAF, caffeine, reference compound] | not inhibited |  |  | inhibition of taste membrane-dependent activation of transducin by DEN (AMP analogues) (listed as caffeine): did not block |
| Nc1ccn([C@@H]2O[C@H](COP(=O)(O)O)[C@@H](O)[C@H]2O)c(=O)n1 [CMP, 5′-cytidylic acid] | inhibited | successfully inhibit |  | inhibition of taste membrane-dependent activation of transducin by DEN (AMP analogues) (listed as 5′-Cytidylic acid): partially inhibited |
| CC[N+](CC)(CC(=O)Nc1c(C)cccc1C)Cc1ccccc1 [DEN, denatonium benzoate, reference compound] |  |  | activated transducin |  |
| C=C[C@H]1C[N@@]2CC[C@H]1C[C@H]2[C@H](O)c1ccnc2ccc(OC)cc12 [QUI, quinine hydrochloride, reference compound] |  |  | activated transducin |  |
| Cn1c(=O)c2[nH]cnc2n(C)c1=O [THE, theophylline, reference compound] | not inhibited |  |  | inhibition of taste membrane-dependent activation of transducin by DEN (AMP analogues) (listed as theophylline): did not block |
| Cc1cn([C@H]2C[C@H](O)[C@@H](COP(=O)(O)O)O2)c(=O)[nH]c1=O [TMP, thymidine 5′-monophosphate] | inhibited | successfully inhibit |  | inhibition of taste membrane-dependent activation of transducin by DEN (AMP analogues) (listed as thymidine 5′-monophosphate): potently inhibited |
| Nc1ncnc2c1ncn2[C@@H]1O[C@H](CO)[C@@H](O)[C@H]1OP(=O)(O)O [adenosine 2′-monophosphate] |  | successfully inhibit |  | inhibition of DEN/taste receptor activation of transducin (concentration not given, not shown in FIG. 2): potently inhibited |
| CN1[C@@H]2CC[C@H]1C[C@@H](OC(=O)C(CO)c1ccccc1)C2 (stereo partly shown) [atropine, atropine hydrochloride, reference compound] |  |  | activated transducin |  |
| O=C(O)/C=C/c1ccc(O)c(O)c1 [caffeic acid, reference compound] |  |  | activated transducin |  |
| C[C@@H]1O[C@@H](O[C@H]2[C@H](Oc3cc(O)c4c(c3)O[C@H](c3ccc(O)cc3)CC4=O)O[C@H](CO)[C@@H](O)[C@@H]2O)[C@H](O)[C@H](O)[C@H]1O [naringin, reference compound] |  |  | activated transducin |  |
| CCN(CC)CCCC(C)Nc1c2ccc(Cl)cc2nc2ccc(OC)cc12 (stereo not shown) [quinacrine, reference compound] |  |  | activated transducin |  |
| C1CCN2C[C@@H]3C[C@@H](CN4CCCC[C@@H]34)[C@H]2C1 [sparteine, reference compound] |  |  | activated transducin |  |
| nicotine hemisulfate [reference compound] |  |  |  | activation of transducin by the tastant in the presence of taste membranes: activated transducin |
